The subject of the experiment is HEK293 cells. Nature of the experiment: Preliminary screening as DNA vectors, GFP transfection of HEK293 cells. Type of experiment: cell-based. The following applies: amino lipid/DOPE liposome with 75 ng plasmid DNA (psin-EGFP-IRES-Puro); number of GFP-expressing cells divided by total nuclei (Hoechst). An outline of the steps:
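First, amino lipid and DOPE were vortexed in sodium acetate buffer (pH 5.6) to form liposomes. Next, these were held with 75 ng EGFP plasmid at room temperature for 30 min. Finally, HEK293 cells were added, cultured at 37° C., Hoechst-stained, and GFP+/total nuclei scored by imaging.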
On to `CCCCCCCCCCCSc1nc(NCCCCCCCCC)nc(NCCN2CCN(C)CC2)n1` [S11N9 D5], for which the “Absolute DNA transfection efficiency in HEK293 cells” value (shortened to “Absolute DNA transfection efficiency”) was determined as 20.5%.
Consider `CCCCCCCCCCCSc1nc(NCCCCCCCCC)nc(NCCCN(C)C)n1` [S11N9 D6], for which the “Absolute DNA transfection efficiency” value is listed as 40.1%.
To `CCCCCCCCCCCSc1nc(NCCCCCCCCC)nc(NCCN(CC)CC)n1` [S11N9 D7] belongs 2.0%; to `CCCCCCCCCCCSc1nc(NCCCCCCCCC)nc(NCCCN2CCOCC2)n1` [S11N9 D8], 8.6%; to `CCCCCCCCCCCSc1nc(NCCCCCCCCC)nc(NCCCN2CCN(C)CC2)n1` [S11N9 D9], 22.4%.
As to `CCCCCCCCCCCSc1nc(NCCCCCCCCC)nc(NCC2CCN(C)CC2)n1` [S11N9 D10], the “Absolute DNA transfection efficiency” value came to 32.5%.
To `CCCCCCCCCCCNc1nc(NCCN(C)C)nc(SCCCCCCCCCCC)n1` [S11N11 D1] belongs 17.8%.
Turning to `CCCCCCCCCCCNc1nc(NCCN2CCOCC2)nc(SCCCCCCCCCCC)n1` [S11N11 D2], the “Absolute DNA transfection efficiency” value is on record as 6.3%.
To `CCCCCCCCCCCNc1nc(NCCN2CCCC2)nc(SCCCCCCCCCCC)n1` [S11N11 D3] belongs 23.4%; to `CCCCCCCCCCCNc1nc(NCCN2CCCCC2)nc(SCCCCCCCCCCC)n1` [S11N11 D4], 1.0%; to `CCCCCCCCCCCNc1nc(NCCN2CCN(C)CC2)nc(SCCCCCCCCCCC)n1` [S11N11 D5], 10.1%.
To `CCCCCCCCCCCNc1nc(NCCCN(C)C)nc(SCCCCCCCCCCC)n1` [S11N11 D6] belongs 22.8%.
To `CCCCCCCCCCCNc1nc(NCCN(CC)CC)nc(SCCCCCCCCCCC)n1` [S11N11 D7] belongs 6.8%.
In the case of `CCCCCCCCCCCNc1nc(NCCCN2CCOCC2)nc(SCCCCCCCCCCC)n1` [S11N11 D8], the “Absolute DNA transfection efficiency” value came out at 2.5%.
Regarding `CCCCCCCCCCCNc1nc(NCCCN2CCN(C)CC2)nc(SCCCCCCCCCCC)n1` [S11N11 D9], the “Absolute DNA transfection efficiency” value was determined as 4.9%.
As to `CCCCCCCCCCCNc1nc(NCC2CCN(C)CC2)nc(SCCCCCCCCCCC)n1` [S11N11 D10], the “Absolute DNA transfection efficiency” value was found to be 5.6%.
To `CCCCCCCCCCCCNc1nc(NCCN(C)C)nc(SCCCCCCCCCCC)n1` [S11N12 D1] belongs 16.2%.
As for `CCCCCCCCCCCCNc1nc(NCCN2CCOCC2)nc(SCCCCCCCCCCC)n1` [S11N12 D2], the figure is 3.1%; as for `CCCCCCCCCCCCNc1nc(NCCN2CCCC2)nc(SCCCCCCCCCCC)n1` [S11N12 D3], 22.8%; as for `CCCCCCCCCCCCNc1nc(NCCN2CCCCC2)nc(SCCCCCCCCCCC)n1` [S11N12 D4], 3.4%.
Regarding `CCCCCCCCCCCCNc1nc(NCCN2CCN(C)CC2)nc(SCCCCCCCCCCC)n1` [S11N12 D5], the “Absolute DNA transfection efficiency” value stood at 14.1%.
As for `CCCCCCCCCCCCNc1nc(NCCCN(C)C)nc(SCCCCCCCCCCC)n1` [S11N12 D6], the figure is 18.8%; as for `CCCCCCCCCCCCNc1nc(NCCN(CC)CC)nc(SCCCCCCCCCCC)n1` [S11N12 D7], 9.8%; as for `CCCCCCCCCCCCNc1nc(NCCCN2CCOCC2)nc(SCCCCCCCCCCC)n1` [S11N12 D8], 1.5%.
`CCCCCCCCCCCCNc1nc(NCCCN2CCN(C)CC2)nc(SCCCCCCCCCCC)n1` [S11N12 D9]: the “Absolute DNA transfection efficiency” value is given as 5.9%.
`CCCCCCCCCCCCNc1nc(NCC2CCN(C)CC2)nc(SCCCCCCCCCCC)n1` [S11N12 D10]: the “Absolute DNA transfection efficiency” value was 4.7%.
Turning to `CCCCCCCCCCCCCNc1nc(NCCN(C)C)nc(SCCCCCCCCCCC)n1` [S11N13 D1], the “Absolute DNA transfection efficiency” value was 10.6%.
With `CCCCCCCCCCCCCNc1nc(NCCN2CCOCC2)nc(SCCCCCCCCCCC)n1` [S11N13 D2], the “Absolute DNA transfection efficiency” value came out at 5.5%.
For `CCCCCCCCCCCCCNc1nc(NCCN2CCCC2)nc(SCCCCCCCCCCC)n1` [S11N13 D3], the “Absolute DNA transfection efficiency” value is on record as 17.5%.
To `CCCCCCCCCCCCCNc1nc(NCCN2CCCCC2)nc(SCCCCCCCCCCC)n1` [S11N13 D4] belongs 3.5%; to `CCCCCCCCCCCCCNc1nc(NCCN2CCN(C)CC2)nc(SCCCCCCCCCCC)n1` [S11N13 D5], 8.4%.
In the case of `CCCCCCCCCCCCCNc1nc(NCCCN(C)C)nc(SCCCCCCCCCCC)n1` [S11N13 D6], the “Absolute DNA transfection efficiency” value came to 13.6%.
Turning to `CCCCCCCCCCCCCNc1nc(NCCN(CC)CC)nc(SCCCCCCCCCCC)n1` [S11N13 D7], the “Absolute DNA transfection efficiency” value stood at 2.8%.
In the case of `CCCCCCCCCCCCCNc1nc(NCCCN2CCOCC2)nc(SCCCCCCCCCCC)n1` [S11N13 D8], the “Absolute DNA transfection efficiency” value is listed as 0.9%.
Consider `CCCCCCCCCCCCCNc1nc(NCCCN2CCN(C)CC2)nc(SCCCCCCCCCCC)n1` [S11N13 D9], for which the “Absolute DNA transfection efficiency” value was 4.9%.
For `CCCCCCCCCCCCCNc1nc(NCC2CCN(C)CC2)nc(SCCCCCCCCCCC)n1` [S11N13 D10], the “Absolute DNA transfection efficiency” value is 3.8%.
Take `CCCCCCCCCCCCCCCNc1nc(NCCN(C)C)nc(SCCCCCCCCCCC)n1` [S11N15 D1]: the “Absolute DNA transfection efficiency” value was determined as 12.5%.
Consider `CCCCCCCCCCCCCCCNc1nc(NCCN2CCOCC2)nc(SCCCCCCCCCCC)n1` [S11N15 D2], for which the “Absolute DNA transfection efficiency” value is 1.3%.
Consider `CCCCCCCCCCCCCCCNc1nc(NCCN2CCCC2)nc(SCCCCCCCCCCC)n1` [S11N15 D3], for which the “Absolute DNA transfection efficiency” value is 24.5%.
As for `CCCCCCCCCCCCCCCNc1nc(NCCN2CCCCC2)nc(SCCCCCCCCCCC)n1` [S11N15 D4], the figure is 9.0%; as for `CCCCCCCCCCCCCCCNc1nc(NCCN2CCN(C)CC2)nc(SCCCCCCCCCCC)n1` [S11N15 D5], 9.9%.
With `CCCCCCCCCCCCCCCNc1nc(NCCCN(C)C)nc(SCCCCCCCCCCC)n1` [S11N15 D6], the “Absolute DNA transfection efficiency” value is on record as 8.2%.
For the molecule `CCCCCCCCCCCCCCCNc1nc(NCCN(CC)CC)nc(SCCCCCCCCCCC)n1` [S11N15 D7], the “Absolute DNA transfection efficiency” value came to 5.2%.
With `CCCCCCCCCCCCCCCNc1nc(NCCCN2CCOCC2)nc(SCCCCCCCCCCC)n1` [S11N15 D8], the “Absolute DNA transfection efficiency” value stood at 0.1%.
Take `CCCCCCCCCCCCCCCNc1nc(NCCCN2CCN(C)CC2)nc(SCCCCCCCCCCC)n1` [S11N15 D9]: the “Absolute DNA transfection efficiency” value is recorded as 7.0%.
With `CCCCCCCCCCCCCCCNc1nc(NCC2CCN(C)CC2)nc(SCCCCCCCCCCC)n1` [S11N15 D10], the “Absolute DNA transfection efficiency” value turned out to be 7.0%.
`CCCCCCCCCCCCCCCCNc1nc(NCCN(C)C)nc(SCCCCCCCCCCC)n1` [S11N16 D1]: the “Absolute DNA transfection efficiency” value worked out at 8.2%.
As to `CCCCCCCCCCCCCCCCNc1nc(NCCN2CCOCC2)nc(SCCCCCCCCCCC)n1` [S11N16 D2], the “Absolute DNA transfection efficiency” value is on record as 3.5%.
To `CCCCCCCCCCCCCCCCNc1nc(NCCN2CCCC2)nc(SCCCCCCCCCCC)n1` [S11N16 D3] belongs 13.8%; to `CCCCCCCCCCCCCCCCNc1nc(NCCN2CCCCC2)nc(SCCCCCCCCCCC)n1` [S11N16 D4], 4.4%.
As to `CCCCCCCCCCCCCCCCNc1nc(NCCN2CCN(C)CC2)nc(SCCCCCCCCCCC)n1` [S11N16 D5], the “Absolute DNA transfection efficiency” value was 6.8%.
With `CCCCCCCCCCCCCCCCNc1nc(NCCCN(C)C)nc(SCCCCCCCCCCC)n1` [S11N16 D6], the “Absolute DNA transfection efficiency” value came out at 5.7%.
On to `CCCCCCCCCCCCCCCCNc1nc(NCCN(CC)CC)nc(SCCCCCCCCCCC)n1` [S11N16 D7], for which the “Absolute DNA transfection efficiency” value was determined as 1.7%.
Take `CCCCCCCCCCCCCCCCNc1nc(NCCCN2CCOCC2)nc(SCCCCCCCCCCC)n1` [S11N16 D8]: the “Absolute DNA transfection efficiency” value was 0.4%.
For the molecule `CCCCCCCCCCCCCCCCNc1nc(NCCCN2CCN(C)CC2)nc(SCCCCCCCCCCC)n1` [S11N16 D9], the “Absolute DNA transfection efficiency” value was determined as 6.6%.
`CCCCCCCCCCCCCCCCNc1nc(NCC2CCN(C)CC2)nc(SCCCCCCCCCCC)n1` [S11N16 D10]: the “Absolute DNA transfection efficiency” value is recorded as 3.9%.
Turning to `CCCCCCCCCCCCCCCCCCNc1nc(NCCN(C)C)nc(SCCCCCCCCCCC)n1` [S11N18 D1], the “Absolute DNA transfection efficiency” value amounted to 13.8%.
As for `CCCCCCCCCCCCCCCCCCNc1nc(NCCN2CCOCC2)nc(SCCCCCCCCCCC)n1` [S11N18 D2], the figure is 2.8%; as for `CCCCCCCCCCCCCCCCCCNc1nc(NCCN2CCCC2)nc(SCCCCCCCCCCC)n1` [S11N18 D3], 32.1%.
With `CCCCCCCCCCCCCCCCCCNc1nc(NCCN2CCCCC2)nc(SCCCCCCCCCCC)n1` [S11N18 D4], the “Absolute DNA transfection efficiency” value is given as 4.4%.
On to `CCCCCCCCCCCCCCCCCCNc1nc(NCCN2CCN(C)CC2)nc(SCCCCCCCCCCC)n1` [S11N18 D5], for which the “Absolute DNA transfection efficiency” value stood at 9.3%.
As for `CCCCCCCCCCCCCCCCCCNc1nc(NCCCN(C)C)nc(SCCCCCCCCCCC)n1` [S11N18 D6], the “Absolute DNA transfection efficiency” value came to 21.7%.
Consider `CCCCCCCCCCCCCCCCCCNc1nc(NCCN(CC)CC)nc(SCCCCCCCCCCC)n1` [S11N18 D7], for which the “Absolute DNA transfection efficiency” value was 3.4%.
`CCCCCCCCCCCCCCCCCCNc1nc(NCCCN2CCOCC2)nc(SCCCCCCCCCCC)n1` [S11N18 D8]: the “Absolute DNA transfection efficiency” value is given as 4.4%.

(Values after patent US20230123334A1, “AMINO LIPID COMPOUND, PREPARATION METHOD THEREFOR, AND APPLICATION THEREOF” (SHENZHEN SHENXIN BIOTECHNOLOGY CO., LTD., priority 2020, published 2023).)
